Reference: patent US4206215A, “Antimicrobial bis-[4-(substituted-amino)-1-pyridinium]alkanes” (Sterling Drug Inc., priority 1977, dated 1980)
Like-named read-outs stand apart in the source and are kept apart here.

Assays:
S. Aureus Smith = assay: In vitro antibacterial activity, MIC (modified Autotiter method); assay type: cell-based, Staphylococcus aureus; settings: Staphylococcus aureus, 20 h, 18-20 hours at 37° C.; read-out: MIC S. Aureus Smith
Outline: (§1)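 MIC values come from a twofold dilution series spanning final concentrations of 500 down to 0.06 mcg./ml. Dilutions were prepared automatically in sterile water from a 1,000 mcg./ml. solution before inoculated double-strength glucose-containing semisynthetic medium was added.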

K. pneum. 39645 = assay: as above; assay type: cell-based, Klebsiella pneumoniae; settings: Klebsiella pneumoniae, 20 h, 18-20 hours at 37° C.; read-out: MIC K. pneum. 39645
Outline: as §1

T. menta. 9129 = assay: In vitro antifungal activity, MIC (modified Autotiter method); assay type: cell-based, Trichophyton mentagrophytes; settings: Trichophyton mentagrophytes, 20 h, 18-20 hours at 37° C.; read-out: MIC T. menta. 9129
Outline: as §1

Ps. aerug. MGH-2 = assay: In vitro antibacterial activity, MIC (modified Autotiter method); assay type: cell-based, Pseudomonas aeruginosa; settings: Pseudomonas aeruginosa, 20 h, 18-20 hours at 37° C.; read-out: MIC Ps. aerug. MGH-2
Outline: as §1

A. niger 16404 = assay: In vitro antifungal activity, MIC (modified Autotiter method); assay type: cell-based, Aspergillus niger; settings: Aspergillus niger, 16404, 20 h, 18-20 hours at 37° C.; read-out: MIC A. niger 16404
Outline: as §1

S. pyogen. C203 = assay: In vitro antibacterial activity, MIC (modified Autotiter method); assay type: cell-based, Streptococcus pyogenes; settings: 18-20 hours at 37° C.
Outline: as §1

S. Aureus ATCC 6538 = assay: Effect of serum on bacteriostatic activity (serial tube dilution test); assay type: cell-based, Staphyloccocus aureus; settings: for Fold Increase in MIC S. Aureus ATCC 6538: 40% vs 0% horse serum; for MIC: Staphylococcus aureus, ATCC6538
Method: (§2) Antibacterial effectiveness in the presence of serum was determined for representative examples by the standard serial tube dilution test wherein paired comparisons of minimum inhibitory concentrations (MIC) were determined in the absence and in the presence of heat inactivated (30 min. at 56° C.) horse serum (40%) in the test medium. The results are expressed as the fold increase in MIC (mcg./ml.) versus Staphyloccocus aureus and Escherichia coli caused by the presence of serum and are presented in Table B hereinbelow.

P. mirab. MGH-1 = assay: In vitro antibacterial activity, MIC (modified Autotiter method); assay type: cell-based, Proteus mirabilis; settings: Proteus mirabilis, 20 h, 18-20 hours at 37° C.; read-out: MIC P. mirab. MGH-1
Outline: as §1

C. albicans 10231 = assay: In vitro antifungal activity, MIC (modified Autotiter method); assay type: cell-based, Candida albicans; settings: 18-20 hours at 37° C.
Outline: as §1

C. albicans Wisc. = assay: as above; assay type: cell-based, Candida albicans; settings: Candida albicans, 20 h, 18-20 hours at 37° C.; read-out: MIC C. albicans Wisc.
Outline: as §1

E. coli AB1932-1 = assay: In vitro antibacterial activity, MIC (modified Autotiter method); assay type: cell-based, Escherichia coli; settings: Escherichia coli, AB19321, 20 h, 18-20 hours at 37° C.; read-out: MIC E. coli AB1932-1
Outline: as §1

E. coli Vogel = assay: as above; assay type: cell-based, Escherichia coli; settings: Escherichia coli, 20 h, 18-20 hours at 37° C.; read-out: MIC E. coli Vogel
Outline: as §1

E. coli 100/B22 = assay: as above; assay type: cell-based, Escherichia coli; settings: Escherichia coli, 100/B22, 20 h, read-out: MIC E. coli 100/B22, 18-20 hours at 37° C.
Outline: as §1

[1] = Acute oral toxicity (ALD50); assay type: in vivo; settings: mouse, in vivo, po, mice, suspension in 1% gum tragacanth; read-out: 7-Day ALD50
Method: (§3) The acute oral toxicity (ALD50) of several representative examples was determined as follows: Groups of 3 young adult male Swiss-Webster strain albino mice were fasted approximately 4 hours before medication and then medicated once orally by stomach tube.

[2] = system: young adult male Swiss-Webster strain albino mice; assay: Acute oral toxicity (ALD50); assay type: in vivo; settings: suspension in 1% G.T.
Method: as §3

E. Coli ATCC 8739 = assay: Effect of serum on bacteriostatic activity (serial tube dilution test); assay type: cell-based, Escherichia coli; settings: for Fold Increase in MIC E. Coli ATCC 8739: 40% vs 0% horse serum; for MIC: Escherichia coli, ATCC8739
Method: as §2

[3] = 40% heat inactivated horse serum, read-out: MIC S. Aureus ATCC 6538 40% Serum
[4] = read-out: MIC S. Aureus ATCC 6538 0% Serum
[5] = 40% heat inactivated horse serum, read-out: MIC E. Coli ATCC 8739 40% Serum
[6] = read-out: MIC E. Coli ATCC 8739 0% Serum

## CCCCCCCNc1cc[n+](CCCCCCCCCC[n+]2ccc(NCCCCCCC)cc2)cc1 [Example 26, 1,10-bis-[4-(heptylamino)-1-pyridinium]decane dibromide]
S. Aureus Smith
  MIC: 0.37 µg/mL
K. pneum. 39645
  MIC: 1.49 µg/mL
T. menta. 9129
  MIC: 0.75 µg/mL
Ps. aerug. MGH-2
  MIC: 11.9 µg/mL
A. niger 16404
  MIC: 2.98 µg/mL
S. pyogen. C203
  MIC S. pyogen. C203: 1.95 µg/mL
S. Aureus ATCC 6538
  Fold Increase in MIC S. Aureus ATCC 6538: 16 fold
S. Aureus ATCC 6538; [3]
  MIC: 1.95 µg/mL
S. Aureus ATCC 6538; [4]
  MIC: 0.125 µg/mL
P. mirab. MGH-1
  MIC: 6 µg/mL
C. albicans 10231
  MIC C. albicans 10231: 0.75 µg/mL
C. albicans Wisc.
  MIC: 1.49 µg/mL
E. coli AB1932-1
  MIC: 0.75 µg/mL
E. coli Vogel
  MIC: 0.75 µg/mL
E. coli 100/B22
  MIC: 0.75 µg/mL
[1]
  LD50 at 168 h: > 1000 mg/kg
[2]; 125 mg/kg oral
  Mortality 7 Days: 0/3
  Mortality 24 Hrs: 0/3
[2]; 250 mg/kg oral
  Mortality 7 Days: 0/3
  Mortality 24 Hrs: 0/3
[2]; 500 mg/kg oral
  Mortality 7 Days: 0/3
  Mortality 24 Hrs: 0/3
[2]; 1000 mg/kg oral
  Mortality 7 Days: 0/3
  Mortality 24 Hrs: 0/3
E. Coli ATCC 8739
  Fold Increase in MIC E. Coli ATCC 8739: 16 fold
E. Coli ATCC 8739; [5]
  MIC: 7.8 µg/mL
E. Coli ATCC 8739; [6]
  MIC: 0.5 µg/mL

## CCCCCCCCCNc1cc[n+](CCCCCCCC[n+]2ccc(NCCCCCCCCC)cc2)cc1 [Example 29C, 1,8-bis-[4-(nonylamino)-1-pyridinium]octane dibromide]
S. Aureus Smith
  MIC: 1 µg/mL
K. pneum. 39645
  MIC: 1.95 µg/mL
T. menta. 9129
  MIC: 1.95 µg/mL
Ps. aerug. MGH-2
  MIC: 7.8 µg/mL
A. niger 16404
  MIC: 7.8 µg/mL
S. pyogen. C203; Streptococcus pyogenes, 20 h, read-out: MIC S. pyogen. C203
  MIC: 1.95 µg/mL
S. Aureus ATCC 6538
  Fold Increase in MIC S. Aureus ATCC 6538: 16 fold
S. Aureus ATCC 6538; [3]
  MIC: 7.8 µg/mL
S. Aureus ATCC 6538; [4]
  MIC: 0.5 µg/mL
P. mirab. MGH-1
  MIC: 3.9 µg/mL
C. albicans 10231; Candida albicans, 10231, 20 h, read-out: MIC C. albicans 10231
  MIC: 3.9 µg/mL
C. albicans Wisc.
  MIC: 3.9 µg/mL
E. coli AB1932-1
  MIC: 1.95 µg/mL
E. coli Vogel
  MIC: 3.9 µg/mL
E. coli 100/B22
  MIC: 1.95 µg/mL
[1]
  LD50 at 168 h: > 1000 mg/kg
[2]; 125 mg/kg oral
  Mortality 7 Days: 0/3
  Mortality 24 Hrs: 0/3
[2]; 250 mg/kg oral
  Mortality 7 Days: 0/3
  Mortality 24 Hrs: 0/3
[2]; 500 mg/kg oral
  Mortality 7 Days: 0/3
  Mortality 24 Hrs: 0/3
[2]; 1000 mg/kg oral
  Mortality 7 Days: 0/3
  Mortality 24 Hrs: 0/3
E. Coli ATCC 8739
  Fold Increase in MIC E. Coli ATCC 8739: 16 fold
E. Coli ATCC 8739; [5]
  MIC: 62.5 µg/mL
E. Coli ATCC 8739; [6]
  MIC: 3.9 µg/mL
